Measured values taken from patent publication US9321722B2, “Bis-indolic derivatives, their uses in particular as antibacterials” (UNIVERSITE JOSEPH FOURIER, priority 2011, dated 2016).
Converted amounts (≈) assume the structure as drawn. Counter-ions that a name gives are not always drawn. Like-named read-outs stand apart in the source and are kept apart here.

What was measured:
[1] = tested on: HCT116 (human colon tumor); assay: In vitro cytotoxicity; format: cell-based; conditions: HCT-116, read-out: % of cellular growth inhibition
Experimental: (§1) In vitro cytotoxicity was assayed on three cell lines—KB (human mouth carcinoma), MCR5 (human lung fibroblast) and HCT116 (human colon tumor). Results are presented in table III as % of cellular growth inhibition in presence of 10^−5 M and 10^−6 M of the tested bis-indolic derivatives.

[2] = tested on: KB (human mouth carcinoma); assay: In vitro cytotoxicity; format: cell-based; conditions: read-out: % of cellular growth inhibition
Experimental: as §1

[3] = tested on: MRC5 (human lung fibroblast); assay: In vitro cytotoxicity; format: cell-based; conditions: MRC5, read-out: % of cellular growth inhibition
Experimental: as §1

[4] = tested on: S. aureus ATCC 106414 (VISA); assay: MIC microdilution (Table I-1); format: cell-based, Staphylococcus aureus; conditions: read after 18 hours
Experimental: (§2) The microdilution method recommended by the Clinical and Laboratory Standard Institute [M07-A8, Vol. 29, N^o 2] was used. The activity of indolic compounds was tested against 29 bacterial strains belonging to 17 different species and 12 different genera (Staphylococcus, Streptococcus, Enterococcus, Listeria, Bacillus, Haemophilus, Escherichia, Klebsiella, Enterobacter, Serratia, Pseudomonas, and Acinetobacter). Bacterial inocula were prepared in Mueller Hinton broth (MH2, bioMerieux, Marcy L'Etoile, France), supplemented with 10% sheep blood for fastidious species (i.e., Streptococcus pneumoniae and Haemophilus influenzae). They were dispensed in 96 well microtiter plates (5×10^5 CFU/ml of final inoculum). Indolic compounds were added to the wells as to obtain two-fold serial concentrations (0.50-128 mg/L of final concentrations). Plates were incubated at 37° C. in ambient air, or at 37° C. in 5% CO2 enriched atmosphere for fastidious species. […] Drug-free cultures served as growth controls. Cultures receiving gentamicin, ciprofloxacin or cefotaxime served as positive controls.

S. aureus ATCC 29213 = assay: MIC microdilution (Table I-1); format: cell-based, Staphylococcus aureus
Experimental: as §2

[5] = tested on: S. aureus ATCC 33592 (MRSA); assay: MIC microdilution (Table I-1); format: cell-based, Staphylococcus aureus; conditions: read after 18 hours
Experimental: as §2

S. aureus ATCC 6538 = assay: MIC microdilution (Table I-1); format: cell-based, Staphylococcus aureus
Experimental: as §2

S. aureus ATCC 9144 = assay: MIC microdilution (Table I-1); format: cell-based, Staphylococcus aureus
Experimental: as §2

S. aureus CIP 103428 = assay: MIC microdilution (Table I-1); format: cell-based, Staphylococcus aureus
Experimental: as §2

[6] = tested on: S. aureus CIP 65.25 (MRSA); assay: MIC microdilution (Table I-1); format: cell-based, Staphylococcus aureus; conditions: read after 18 hours
Experimental: as §2

S. aureus CIP 65.6 = assay: MIC microdilution (Table I-1); format: cell-based, Staphylococcus aureus
Experimental: as §2

S. aureus SA-1199B = assay: MIC microdilution (Table I-1); format: cell-based, Staphylococcus aureus
Experimental: as §2

[7] = tested on: S. epidermidis ATCC 12228; assay: MIC microdilution (Table I-1); format: cell-based, Staphylococcus epidermidis
Experimental: as §2

[8] = tested on: S. epidermidis CIP 103627; assay: MIC microdilution (Table I-1); format: cell-based, Staphylococcus epidermidis
Experimental: as §2

S. epidermidis CIP 81.55 = assay: MIC microdilution (Table I-1); format: cell-based, Staphylococcus epidermidis
Experimental: as §2

[9] = tested on: Acinetobacter baumanii ATCC 19606; assay: MIC microdilution (Table I-1); format: cell-based; conditions: Acinetobacter baumannii, ATCC19606, read after 18 hours
Experimental: as §2

[10] = tested on: Bacillus subtilis CIP 5262; assay: MIC microdilution (Table I-1); format: cell-based
Experimental: as §2

E. faecalis ATCC 29212 = assay: MIC microdilution (Table I-1); format: cell-based
Experimental: as §2

E. faecium CIP 54.32 = assay: MIC microdilution (Table I-1); format: cell-based
Experimental: as §2

[11] = tested on: Enterobacter cloacae ATCC 13047; assay: MIC microdilution (Table I-1); format: cell-based; conditions: ATCC13047, read after 18 hours
Experimental: as §2

[12] = tested on: Escherichia coli ATCC 25922; assay: MIC microdilution (Table I-1); format: cell-based; conditions: ATCC25922, read after 18 hours
Experimental: as §2

[13] = tested on: Haemophilus influenzae ATCC 49766; assay: MIC microdilution (Table I-1); format: cell-based; conditions: Haemophilus influenzae, ATCC49766, 18 h
Experimental: as §2

[14] = tested on: Klebsiella pneumoniae ATCC 35657; assay: MIC microdilution (Table I-1); format: cell-based
Experimental: as §2

[15] = tested on: Listeria innocua CIP 80.11; assay: MIC microdilution (Table I-1); format: cell-based
Experimental: as §2

[16] = tested on: Pseudomonas aeruginosa CIP 5933; assay: MIC microdilution (Table I-1); format: cell-based; conditions: CIP5933, read after 18 hours
Experimental: as §2

[17] = tested on: S. agalactiae (group B) ATCC 12400; assay: MIC microdilution (Table I-1); format: cell-based
Experimental: as §2

S. aureus ATCC 25923 = assay: MIC microdilution (Table I-1); format: cell-based; conditions: Staphylococcus aureus, ATCC25923, read after 18 hours
Experimental: as §2

S. mitis CIP 103335 = assay: MIC microdilution (Table I-1); format: cell-based
Experimental: as §2

S. pneumoniae ATCC 49619 = assay: MIC microdilution (Table I-1); format: cell-based; conditions: Streptococcus pneumoniae, ATCC49619, read after 18 hours
Experimental: as §2

[18] = tested on: S. pyogenes (group A) CIP 104226; assay: MIC microdilution (Table I-1); format: cell-based
Experimental: as §2

[19] = tested on: Serratia marcescens CIP 103551; assay: MIC microdilution (Table I-1); format: cell-based; conditions: CIP103551, read after 18 hours
Experimental: as §2

S. pneumoniae ATCC 6303 = assay: MIC microdilution (Table I-1); format: cell-based, Streptococcus pneumoniae
Experimental: as §2

[20] = tested on: 29 bacterial strains belonging to 17 different species; assay: Intrinsic antibacterial activity, MIC on the bacterial panel; format: cell-based; conditions: result in words
Experimental: as §2

[21] = Staphylococcus aureus, read-out: MIC

O=C(C(=O)N1CCNCC1c1c[nH]c2ccc(Br)cc12)c1c[nH]c2ccc(Br)cc12 (stereo not shown) [Compound 7, 1-(5-bromo-1H-indol-3-yl)-2-(2-(5-bromo-1H-indol-3-yl)piperazin-1-yl)ethane-1,2-dione hydrochloride]
inhibition at 1 µM [1]: 0%
inhibition at 10 µM [1]: 22 ± 7%
inhibition at 1 µM [2]: 0%
inhibition at 10 µM [2]: 4 ± 11%
inhibition at 1 µM [3]: 0%
inhibition at 10 µM [3]: 0%

CC(C)(C)OC(=O)NCC(NC(=O)C(F)(F)F)c1c[nH]c2ccc(Br)cc12 (stereo not shown) [Compound 13, tert-Butyl(2-(5-bromo-1H-indol-3-yl)-2-(2,2,2-trifluoroacetamido)ethyl)carbamate]
MIC [4, 21]: > 128 µg/mL
MIC (S. aureus ATCC 29213; Staphylococcus aureus, ATCC29213, read after 18 hours, read-out: MIC): 128 µg/mL (≈ 284 µM)
MIC [5, 21]: > 128 µg/mL
MIC (S. aureus ATCC 6538; Staphylococcus aureus, ATCC6538, read after 18 hours, read-out: MIC): 64 µg/mL (≈ 142 µM)
MIC (S. aureus ATCC 9144; Staphylococcus aureus, ATCC9144, read after 18 hours, read-out: MIC): > 128 µg/mL
MIC (S. aureus CIP 103428; Staphylococcus aureus, CIP103428, read after 18 hours, read-out: MIC): 64 µg/mL (≈ 142 µM)
MIC [6, 21]: > 128 µg/mL
MIC (S. aureus CIP 65.6; Staphylococcus aureus, CIP65, read after 18 hours, read-out: MIC): > 128 µg/mL
MIC (S. aureus SA-1199B; Staphylococcus aureus, SA1199B, 18 h): 64 µg/mL (≈ 142 µM)
MIC ([7]; Staphylococcus epidermidis, ATCC12228, read after 18 hours, read-out: MIC): > 128 µg/mL
MIC ([8]; Staphylococcus epidermidis, CIP103627, read after 18 hours, read-out: MIC): > 128 µg/mL
MIC (S. epidermidis CIP 81.55; Staphylococcus epidermidis, CIP81, read after 18 hours, read-out: MIC): > 128 µg/mL
MIC [9]: > 128 µg/mL
MIC ([10]; CIP5262, read after 18 hours, read-out: MIC): 128 µg/mL (≈ 284 µM)
MIC (E. faecalis ATCC 29212; Enterococcus faecalis, ATCC29212, read after 18 hours, read-out: MIC): > 128 µg/mL
MIC (E. faecium CIP 54.32; Enterococcus faecium, CIP54, read after 18 hours, read-out: MIC): > 128 µg/mL
MIC [11]: > 128 µg/mL
MIC [12]: > 128 µg/mL
MIC [13]: > 128 µg/mL
MIC ([14]; ATCC35657, read after 18 hours, read-out: MIC): > 128 µg/mL
MIC ([15]; CIP80, read after 18 hours, read-out: MIC): > 128 µg/mL
MIC [16]: > 128 µg/mL
MIC ([17]; Streptococcus agalactiae, ATCC12400, read after 18 hours, read-out: MIC): 128 µg/mL (≈ 284 µM)
MIC (S. aureus ATCC 25923): > 128 µg/mL
MIC (S. mitis CIP 103335; Streptococcus mitis, CIP103335, read after 18 hours, read-out: MIC): > 128 µg/mL
MIC (S. pneumoniae ATCC 49619): 128 µg/mL (≈ 284 µM)
MIC ([18]; Streptococcus pyogenes, CIP104226, read after 18 hours, read-out: MIC): 128 µg/mL (≈ 284 µM)
MIC [19]: > 128 µg/mL
MIC (S. pneumoniae ATCC 6303; Streptococcus pneumoniae, ATCC6303, read after 18 hours, read-out: MIC): 128 µg/mL (≈ 284 µM)
intrinsic antibacterial activity [20]: lack of intrinsic antibacterial activity

tert-Butyl(2-(4-bromo)benzamido-2-(5-bromo-1H-indol-3-yl)ethyl)carbamate [Compound 12a]
MIC [4]: >32 µg/mL
MIC (S. aureus ATCC 29213; read after 18 hours): >32 µg/mL
MIC [5]: >32 µg/mL
MIC (S. aureus ATCC 6538; read after 18 hours): >32 µg/mL
MIC (S. aureus ATCC 9144; read after 18 hours): >32 µg/mL
MIC (S. aureus CIP 103428; read after 18 hours): >32 µg/mL
MIC [6]: >32 µg/mL
MIC (S. aureus CIP 65.6; read after 18 hours): >32 µg/mL
MIC (S. aureus SA-1199B; S. aureus SA-1199B, read after 18 hours): >32 µg/mL
MIC ([7]; read after 18 hours): >32 µg/mL
MIC ([8]; read after 18 hours): >32 µg/mL
MIC (S. epidermidis CIP 81.55; read after 18 hours): >32 µg/mL
MIC ([10]; read after 18 hours): >128 µg/mL
MIC (E. faecalis ATCC 29212; read after 18 hours): >128 µg/mL
MIC (E. faecium CIP 54.32; read after 18 hours): >128 µg/mL
MIC ([14]; read after 18 hours): 64 µg/mL
MIC ([15]; read after 18 hours): >128 µg/mL
MIC ([17]; read after 18 hours): 64 µg/mL
MIC (S. mitis CIP 103335; read after 18 hours): >128 µg/mL
MIC ([18]; read after 18 hours): >128 µg/mL
MIC (S. pneumoniae ATCC 6303; read after 18 hours): 128 µg/mL
intrinsic antibacterial activity [20]: lack of intrinsic antibacterial activity
